pIC50: −log10 of the molar value.

The target of one assay is T1, PD-1/PD-L1 interaction (PD-1-Ig / PD-L1-His) (Homo sapiens, UniProt Q9NZQ7).
T1 construct: hPDL1(18-239)-TVMV-His; TVMV protease site linker (C); made in house; host or cells: HEK293T
T1 sequence (Q9NZQ7 with tags, fused parts or gaps): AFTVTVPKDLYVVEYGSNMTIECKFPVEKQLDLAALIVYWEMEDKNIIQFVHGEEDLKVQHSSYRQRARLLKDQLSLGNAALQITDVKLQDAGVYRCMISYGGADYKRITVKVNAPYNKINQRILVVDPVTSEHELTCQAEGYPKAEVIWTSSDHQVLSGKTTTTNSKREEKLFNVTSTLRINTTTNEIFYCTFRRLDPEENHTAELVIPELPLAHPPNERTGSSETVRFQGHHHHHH
The experiment in a line: PD-1/PD-L1 Homogenous Time-Resolved Fluorescence (HTRF) binding assay. Particulars: IC50 range class; PD-L1-His 10 nM, PD-1-Ig 20 nM; read-out: Range or IC50. A digest of the protocol: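 Human PD-L1-His (10 nM final) was pre-incubated with inhibitor for 15 min, then PD-1-Ig (20 nM final) was added for a further 15 min in dPBS with 0.1% BSA and 0.05% Tween-20. Binding was detected by HTRF using Eu-cryptate anti-Ig (1 nM) and APC anti-His (20 nM).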
On to `N#Cc1cncc(COc2cc(OCc3cccc(-c4cccc(COc5cc(OCc6cncc(C#N)c6)c(CN6CCCC[C@H]6C(=O)O)cc5Cl)c4)c3)c(Cl)cc2CO)c1` [Example 50020], for which the pIC50 is 7.05 to 7.70.

`Cc1c(COc2cc(OCc3cncc(C#N)c3)c(CO)cc2Cl)cccc1-c1cccc(COc2cc(OCc3cncc(C#N)c3)c(CNC(CO)(Cc3ccccc3)C(=O)O)cc2Cl)c1C` (stereo not shown) [Example 50060]: the pIC50 is 7.70 to 10.40.

`Cc1c(COc2cc(OCc3cncc(C#N)c3)c(CO)cc2Cl)cccc1-c1cccc(COc2cc(OCc3cncc(C#N)c3)c(CNCC(O)CC(=O)O)cc2Cl)c1C` (stereo not shown) [Example 50070]: the pIC50 was 7.70 to 10.40.

For the compound `Cc1c(COc2cc(OCc3cncc(C#N)c3)c(CO)cc2Cl)cccc1-c1cccc(COc2cc(OCc3cncc(C#N)c3)c(CN3CCOC[C@@H]3C(=O)O)cc2Cl)c1C` [Example 50100], the negative-log IC50 (pIC50) is 7.70 to 10.40.

Turning to `Cc1c(COc2cc(OCc3cncc(C#N)c3)c(CO)cc2Cl)cccc1-c1cccc(COc2cc(OCc3cncc(C#N)c3)c(CN3CCCC(C(=O)O)C3)cc2Cl)c1C` (stereo not shown) [Example 50110], the pIC50 is 7.70 to 10.40.

`Cc1c(COc2cc(OCc3cncc(C#N)c3)c(CO)cc2Cl)cccc1-c1cccc(COc2cc(OCc3cncc(C#N)c3)c(CN3CCC[C@H](C(=O)O)C3)cc2Cl)c1C` [Example 50120]: the pIC50 is 7.70 to 10.40.

For the compound `Cc1c(COc2cc(OCc3cncc(C#N)c3)c(CO)cc2Cl)cccc1-c1cccc(COc2cc(OCc3cncc(C#N)c3)c(CN[C@@H](CCO)C(=O)O)cc2Cl)c1C` [Example 50150], the pIC50 was 7.70 to 10.40.

On to `Cc1c(COc2cc(OCc3cncc(C#N)c3)c(CO)cc2Cl)cccc1-c1cccc(COc2cc(OCc3cncc(C#N)c3)c(CN(CC(C)C)C(CCO)C(=O)O)cc2Cl)c1C` (stereo not shown) [Example 50170], for which the pIC50 is 7.70 to 10.40.

As for `Cc1c(COc2cc(OCc3cncc(C#N)c3)c(CO)cc2Cl)cccc1-c1cccc(COc2cc(OCc3cncc(C#N)c3)c(CN[C@@H](C(=O)O)[C@H](C)O)cc2Cl)c1C` [Example 50180], the negative-log IC50 (pIC50) was 7.70 to 10.40.

On to `Cc1c(COc2cc(OCc3cncc(C#N)c3)c(CO)cc2Cl)cccc1-c1cccc(COc2cc(OCc3cncc(C#N)c3)c(CN[C@@H](C(=O)O)[C@@H](C)O)cc2Cl)c1C` [Example 50190], for which the pIC50 is 7.70 to 10.40.

With `Cc1c(COc2cc(OCc3cncc(C#N)c3)c(CO)cc2Cl)cccc1-c1cccc(COc2cc(OCc3cncc(C#N)c3)c(CNC(C(=O)O)C(C)O)cc2Cl)c1C` (stereo not shown) [Example 50200], the negative logarithm of the IC50 (pIC50) was 7.70 to 10.40.

As to `Cc1c(COc2cc(OCc3cncc(C#N)c3)c(CO)cc2Cl)cccc1-c1cccc(COc2cc(OCc3cncc(C#N)c3)c(CN[C@H](CCO)C(=O)O)cc2Cl)c1C` [Example 50210], the pIC50 was 7.70 to 10.40.

As for `Cc1c(COc2cc(OCc3cncc(C#N)c3)c(CO)cc2Cl)cccc1-c1cccc(COc2cc(OCc3cncc(C#N)c3)c(CNC(C(=O)O)C(=O)O)cc2Cl)c1C` [Example 50220], the pIC50 was 7.70 to 10.40.

For `Cc1c(COc2cc(OCc3cncc(C#N)c3)c(CO)cc2Cl)cccc1-c1cccc(COc2cc(OCc3cncc(C#N)c3)c(CN[C@H](C(=O)O)[C@H](C)O)cc2Cl)c1C` [Example 50230], the pIC50 is 7.70 to 10.40.

As for `Cc1c(COc2cc(OCc3cncc(C#N)c3)c(CO)cc2Cl)cccc1-c1cccc(COc2cc(OCc3cncc(C#N)c3)c(CN[C@H](CO)C(=O)O)cc2Cl)c1C` [Example 50240], the pIC50 was 7.70 to 10.40.

As to `Cc1c(COc2cc(OCc3cncc(C#N)c3)c(CO)cc2Cl)cccc1-c1cccc(COc2cc(OCc3cncc(C#N)c3)c(CN[C@@H](C(=O)O)[C@H](C)O)cc2Cl)c1C` [Example 50250], the pIC50 was 7.70 to 10.40.

On to `Cc1c(COc2cc(OCc3cncc(C#N)c3)c(CO)cc2Cl)cccc1-c1cccc(COc2cc(OCc3cncc(C#N)c3)c(CNCC(O)C(=O)O)cc2Cl)c1C` (stereo not shown) [Example 50300], for which the pIC50 is 7.70 to 10.40.

`Cc1c(COc2cc(OCc3cncc(C#N)c3)c(CO)cc2Cl)cccc1-c1cccc(COc2cc(OCc3cncc(C#N)c3)c(CN[C@@H](CO)CC(=O)O)cc2Cl)c1C` [Example 50310]: the pIC50 is 7.05 to 7.70.

For the compound `Cc1c(COc2cc(OCc3cncc(C#N)c3)c(CO)cc2Cl)cccc1-c1cccc(COc2cc(OCc3cncc(C#N)c3)c(CN[C@H](CO)CC(=O)O)cc2Cl)c1C` [Example 50330], the negative-log IC50 (pIC50) was 7.70 to 10.40.

Turning to `Cc1c(COc2cc(OCc3cncc(C#N)c3)c(CO)cc2Cl)cccc1-c1cccc(COc2cc(OCc3cncc(C#N)c3)c(CN[C@H](C(=O)O)[C@@H](C)[C@H](C)O)cc2Cl)c1C` [Example 50340], the pIC50 is 7.70 to 10.40.

As for `Cc1c(COc2cc(OCc3cncc(C#N)c3)c(CO)cc2Cl)cccc1-c1cccc(COc2cc(OCc3cncc(C#N)c3)c(CN[C@@H](CCO)C(=O)O)cc2Cl)c1C` [Example 50360], the negative-log IC50 (pIC50) is 7.70 to 10.40.

Turning to `CC(CO)(NCc1cc(Cl)c(OCc2cccc(-c3cccc(COc4cc(OCc5cncc(C#N)c5)c(CO)cc4Cl)c3Cl)c2Cl)cc1OCc1cncc(C#N)c1)C(=O)O` (stereo not shown) [Example 50380], the pIC50 is 7.70 to 10.40.

In the case of `C[C@](CO)(NCc1cc(Cl)c(OCc2cccc(-c3cccc(COc4cc(OCc5cncc(C#N)c5)c(CO)cc4Cl)c3Cl)c2Cl)cc1OCc1cncc(C#N)c1)C(=O)O` [Example 50400], the negative logarithm of the IC50 (pIC50) was 7.70 to 10.40.

Turning to `CC(=O)c1cc(Cl)c(OCc2cccc(-c3cccc(COc4cc(OCc5cncc(C#N)c5)c(CN[C@](C)(CO)C(=O)O)cc4Cl)c3C)c2C)cc1OCc1cncc(C#N)c1` [Example 60010], the pIC50 is 7.70 to 10.40.

For `CC(=O)c1cc(Cl)c(OCc2cccc(-c3cccc(COc4cc(OCc5cncc(C#N)c5)c(CN[C@H](C(=O)O)[C@@H](C)O)cc4Cl)c3C)c2C)cc1OCc1cncc(C#N)c1` [Example 60020], the negative logarithm of the IC50 (pIC50) was 7.70 to 10.40.

Turning to `CC(=O)c1cc(Cl)c(OCc2cccc(-c3cccc(COc4cc(OCc5cncc(C#N)c5)c(CN[C@](C)(CO)C(=O)O)cc4Cl)c3Cl)c2Cl)cc1OCc1cncc(C#N)c1` [Example 60040], the negative-log IC50 (pIC50) is 7.70 to 10.40.

On to `CC(=O)c1cc(Cl)c(OCc2cccc(-c3cccc(COc4cc(OCc5cncc(C#N)c5)c(CN[C@H](C(=O)O)[C@@H](C)[C@H](C)O)cc4Cl)c3C)c2C)cc1OCc1cncc(C#N)c1` [Example 60050], for which the negative-log IC50 (pIC50) was 7.70 to 10.40.

Take `CC(=O)c1cc(Cl)c(OCc2cccc(-c3cccc(COc4cc(OCc5cncc(C#N)c5)c(CNC(C)(CO)C(=O)O)cc4Cl)c3Cl)c2Cl)cc1OCc1cncc(C#N)c1` (stereo not shown) [Example 60060]: the pIC50 is 7.70 to 10.40.

In the case of `CC(=O)c1cc(Cl)c(OCc2cccc(-c3cccc(COc4cc(OCc5cncc(C#N)c5)c(CN[C@@](C)(CO)C(=O)O)cc4Cl)c3C)c2C)cc1OCc1cncc(C#N)c1` [Example 60070], the negative logarithm of the IC50 (pIC50) is 7.70 to 10.40.

Consider `CC(=O)c1cc(Cl)c(OCc2cccc(-c3cccc(COc4cc(OCc5cncc(C#N)c5)c(CN[C@@](C)(CO)C(=O)O)cc4Cl)c3Cl)c2Cl)cc1OCc1cncc(C#N)c1` [Example 60080], for which the negative-log IC50 (pIC50) is 7.70 to 10.40.

`CC(=O)c1cc(Cl)c(OCc2cccc(-c3cccc(COc4cc(OCc5cncc(C#N)c5)c(CN[C@@H](C(=O)O)[C@H](C)O)cc4Cl)c3C)c2C)cc1OCc1cncc(C#N)c1` [Example 60090]: the negative-log IC50 (pIC50) is 7.05 to 7.70.

With `Cc1c(COc2cc(OCc3cncc(C#N)c3)c(Cl)cc2Cl)cccc1-c1cccc(COc2cc(OCc3cncc(C#N)c3)c(CN[C@H](C(=O)O)[C@@H](C)O)cc2Cl)c1C` [Example 70010], the pIC50 was 6.00 to 7.05.

On to `Cc1c(COc2cc(OCc3cncc(C#N)c3)c(Cl)cc2Cl)cccc1-c1cccc(COc2cc(OCc3cncc(C#N)c3)c(CN[C@](C)(CO)C(=O)O)cc2Cl)c1C` [Example 70020], for which the pIC50 is 7.70 to 10.40.

Consider `Cc1c(COc2cc(OCc3cncc(C#N)c3)c(Cl)cc2Cl)cccc1-c1cccc(COc2cc(OCc3cncc(C#N)c3)c(CNC(C)(CO)C(=O)O)cc2Cl)c1C` (stereo not shown) [Example 70030], for which the pIC50 was 7.05 to 7.70.

On to `Cc1c(COc2cc(OCc3cncc(C#N)c3)c(Cl)cc2Cl)cccc1-c1cccc(COc2cc(OCc3cncc(C#N)c3)c(CN[C@H](C(=O)O)[C@@H](C)[C@H](C)O)cc2Cl)c1C` [Example 70050], for which the pIC50 was 6.00 to 7.05.

For `Cc1c(COc2cc(OCc3cncc(C#N)c3)c(Cl)cc2Cl)cccc1-c1cccc(COc2cc(OCc3cncc(C#N)c3)c(CN[C@@](C)(CO)C(=O)O)cc2Cl)c1C` [Example 70060], the pIC50 was 7.05 to 7.70.

`N#Cc1cncc(COc2cc(OCc3cccc(-c4cccc(COc5cc(OCc6cncc(C#N)c6)c(C(=O)N6CCC(=O)CC6)cc5Cl)c4Cl)c3Cl)c(Cl)cc2C(=O)N2CCC(=O)CC2)c1` [Example 80010]: the pIC50 was 7.05 to 7.70.

`N#Cc1cncc(COc2cc(OCc3cccc(-c4cccc(COc5cc(OCc6cncc(C#N)c6)c(C(=O)NCCCO)cc5Cl)c4Cl)c3Cl)c(Cl)cc2C(=O)NCCCO)c1` [Example 80020]: the pIC50 is 6.00 to 7.05.

Regarding `CN1CCN(C(=O)c2cc(Cl)c(OCc3cccc(-c4cccc(COc5cc(OCc6cncc(C#N)c6)c(C(=O)N6CCN(C)CC6)cc5Cl)c4Cl)c3Cl)cc2OCc2cncc(C#N)c2)CC1` [Example 80030], the pIC50 was 7.70 to 10.40.

The assay is the same for the next values; noted with them: numeric IC50; PD-L1-His 10 nM, PD-1-Ig 20 nM; read-out: Range or IC50.
As for `N#Cc1cncc(COc2cc(OCc3cccc(-c4cccc(COc5cc(OCc6cncc(C#N)c6)c(CN6CCC(O)(C(=O)O)CC6)cc5Cl)c4)c3)c(Cl)cc2CO)c1` [Example 50040], the pIC50 was 6.94.

Consider `Cc1c(COc2cc(OCc3cncc(C#N)c3)c(CO)cc2Cl)cccc1-c1cccc(COc2cc(OCc3cncc(C#N)c3)c(CNC(C(=O)O)C(=O)O)cc2Cl)c1C` [Example 50270], for which the negative logarithm of the IC50 (pIC50) was 7.64.

`CC(=O)c1cc(Cl)c(OCc2cccc(-c3cccc(COc4cc(OCc5cncc(C#N)c5)c(CNC(C)(CO)C(=O)O)cc4Cl)c3C)c2C)cc1OCc1cncc(C#N)c1` (stereo not shown) [Example 60030]: the pIC50 is 8.22.

On to `Cc1c(COc2cc(OCc3cncc(C#N)c3)c(Cl)cc2Cl)cccc1-c1cccc(COc2cc(OCc3cncc(C#N)c3)c(CN[C@@H](C(=O)O)[C@H](C)O)cc2Cl)c1C` [Example 70040], for which the negative logarithm of the IC50 (pIC50) was 5.98.

Source of the values: patent publication US10144706B2 (BRISTOL-MYERS SQUIBB COMPANY, priority 2016, dated 2018).
